Experimental data taken from patent publication US9944991B2, “Compositions and methods for diagnosis, prognosis and treatment of hematological malignancies” (Dana-Farber Cancer Institute, Inc., priority 2012, dated 2018).

Columns and labels:
BCWM.1 cells [1] = test: Antibody-dependent cell-mediated cytotoxicity assay (ADCC); type: cell-based, human; details: E/T ratio of 10:1; rituximab 10 μg/mL, everolimus 1 nM, bortezomib 5 nM
Description: Briefly, interleukin-2 (IL-2; R&D, Minneapolis, Minn.)-activated PBMCs were used as effector cells and calcein-AM-labeled BCWM.1 cell line, as targets. PBMCs were separated from leukopheresis products from healthy donors over Ficoll-Hypaque solution after informed consent. Effector cells were used immediately at 37° C. in RPMI complete media after being activated with IL-2 (100 UI/mL for 36 hours). Target cells were labeled with calcein-AM for 1 hour at 37° C., washed thrice, and plated in triplicate in 96-well plates (5000 cells per well). ADCC was performed in the presence of rituximab (10 μg/mL) or human control IgG1 (2 ng/mL) at various effector-target (E/T) ratios (10:1, 20:1, and 40:1). The 96-well plates were centrifuged at 30 g for 2 minutes at room temperature, followed by a 4-hour incubation at 37° C. Culture supernatants were transferred to a Black ViewPlate-96 plate and read on Wallac VICTOR2 using 492/520 nm filter set (Perkin Elmer). Combinatory studies using everolimus (1 nM), Bortezomib (5 nM) and Rituximab (10 μg/mL) were also performed. This assay was valid only if (mean maximum release−medium control release)/(mean spontaneous release−medium control release) was more than 7. Spontaneous release is the CPM in the supernatant from wells containing target cells alone. Maximum release is the supernatants of wells containing target cells and Triton X-100. […]

[2] = test system: mammalian target of rapamycin (mTOR); test: Immunohistochemistry of p-4EBP1 and p-S6R in bone marrow biopsies pre- and post-everolimus; type: in vivo, human
Description: Bone marrow biopsies from WM patients at pretreatment and at the end of therapy were fixed in Zenker's formalin, embedded in paraffin blocks, and sectioned. Sections were stained for phospho(p)-4EBP1 and p-S6R (Cell Signaling Technology, Inc.). Signal quantification for each target was obtained from four different areas, on matched pre- and post-everolimus treatment of 4 patients presenting with partial response; and on matched pre- and post-everolimus treatment of 3 patients presenting with stable disease. Numbers of positive cells were obtained on 4 different fields of the bone marrow biopsy, and average and standard deviation provided, as previously described (Fingar D. C. et al., Mol. Cell. Biol., 24(1):200-16 (2004).
In contrast, everolimus-dependent modulation of phosphorylated ribosomal protein S6 (phospho(p)-S6R) and p-4EBP1 was not observed in those patients with stable disease (FIG. 9C).

[3] = test system: primary WM bone-marrow derived CD19+ cells; test: MTT cytotoxicity on primary WM cells; type: cell-based, human; details: 0.1-10 nM, 48 hours, 4 patients with relapsed/refractory WM
Description: Next, it was sought to determine the underlying mechanisms that led to everolimus-dependent anti-tumor effect in WM. The activity of everolimus in targeting WM cells was tested in primary WM CD19^+ cells, and WM and IgM secreting lymphoma cell lines (BCWM1; MWCL.1; RL), as well as in normal PBMC-derived CD19^+ cells. […] Everolimus-induced toxicity in WM and IgM secreting lymphoma cell lines was subsequently validated.

BCWM.1 cells [4] = test: MTT cytotoxicity assay; type: cell-based, human
BCWM.1 cells [5] = test: Thymidine uptake cell proliferation assay; type: cell-based, human; details: 0.01-40 nM, 48 hours
mTOR = test: Western blot of p-mTOR, p-p70S6K, p-4EBP1 in BCWM.1 and MWCL.1 cells; type: cell-based, human; details: 0.1-10 nM, 6 hours
Description: (§2) WM and IgM secreting cell lines were harvested and lysed using lysis buffer (Cell Signaling Technology, Beverly, Mass.) reconstituted with 5 mM NaF, 2 mM Na3VO4, 1 mM PMSF (polymethilsulfonyl fluoride), 5 μg/mL leupeptine, and 5 μg/mL aprotinin. Whole-cell lysates (50 μg/lane) were subjected to sodium dodecyl sulfate-polyacrylamide gel eletrophoresis (SDS-PAGE) and transferred to polyvinyldene fluoride (PVDF) membrane (Bio-Rad Laboratories, Hercules, Calif.). The antibodies used for immunoblotting included: anti-caspase3-, -caspase-9, -PARP, phospho (p)-mTOR, p-p70S6K, p-4EBP1, p-FAK-cyclinD1, -cyclinD2-p27^Kip1, -p21^Cip1, p-Akt, -Akt, pERK, -ERK, p-GSK3, -p-STAT3, -p-p65, -p-p50, -p-IkB, -nucleolin and -tubulin antibodies (Cell Signaling, Danvers, Mass.).

WM-WSU, RL, MWCL.1 cells = test: MTT cytotoxicity on IgM low-grade lymphoma cells; type: cell-based, human; details: 0.01-40 nM, 48 hours
[6] = test system: primary peripheral blood-derived CD19+ cells; test: MTT cytotoxicity on healthy donor cells; type: cell-based, human; details: healthy individuals, 60-1000 nM, 48 hours
BCWM.1 cells [7] = test: Cell cycle analysis, PI staining and flow cytometry; type: cell-based, human; details: for cells in S phase: 12 hours (control 36.29%); for G1 phase BCWM.1 cells: 12 hours (control 52.52%)
BCWM.1 cells [8] = test: Immunoblotting of cyclin D1, cyclin D2, p27Kip1, p21Cip1; type: cell-based, human; details: 0.1-10 nM, 12 hours
Description: as §2

[9] = test system: WM and IgM low-grade lymphoma cells (BCWM.1; MWCL.1; RL); test: DNA fragmentation (Cell Death Detection ELISA), apoptosis; type: cell-based, human; details: 0.1-10 nM, 24 hours
Description: Cell Death Detection ELISA (Roche Applied Science, Indianapolis, Ind.) was used to quantify DNA fragmentation, as per the manufacturer's instructions, and as previously described (Sacco A. et al., Clin Cancer Res., 17(7):1753-64 (2011)).

BCWM.1 and MWCL.1 cells [10] = test: Caspase-9, caspase-3 and PARP cleavage (Western blot, Caspase 3/7 Glo Assay); type: cell-based, human; details: 0.1-10 nM, 24 hours
Description: WM cell lines have been exposed to everolimus (0.1-10 nM) for 24 hours and caspase activation has been assessed using Caspase 3/7 Glo Assay (Promega, Madison, Wis.), according to manufacturer's procedure.

miRNA-155 = test: qRT-PCR of miRNA-155 level in WM cell lines; type: cell-based, human; details: BCWM.1; MWCL.1; 0.1-1-10 nM, 12 hours
Description: qRT-PCR for miRNA-155 (TaqMan microRNA Assays, Applied Biosystems, Foster City, Calif.) was performed on an Applied Biosystems AB7500 Real Time PCR system.

BCWM.1 and MWCL.1 cells [11] = test: MTT cytotoxicity in miRNA-155 knockdown probe-transfected WM cell lines; type: cell-based, human; details: 0.1-1-10 nM, 48 hours, knockdown probe vs scramble probe
BMSCs = test: MTT viability of BMSCs; type: cell-based, human; details: 0.1-10 nM, 48 hours
Description: (§1) The bone marrow (BM) microenvironment confers growth and induces drug resistance in malignant cells (Mitsiades C. S. et al., Eur. J. Cancer., 42(11):1564-73 (2006)). It was therefore sought to determine the anti-tumor activity of everolimus in the presence of the BM microenvironment. It was first investigated whether everolimus inhibits WM cell growth in the context of the BM milieu. BCWM.1 cells were exposed to everolimus (0.1-10 nM) in the presence or absence of BMSCs for 48 hours. The viability of BMSCs assessed by MTT was not affected by everolimus treatment (data not shown). […] Next, the efficacy of everolimus in affecting migration and adhesion of WM cells was evaluated. […] To study the effect of everolimus on the migration of WM cells, BCWM.1 cells were incubated with everolimus (0.01-1 nM) for 4 hours. […] Cells were then subjected to migration as previously reported (Roccaro A. M. et al., Blood, 113(26):6669-80 (2009)).

BCWM.1 cells [12] = test: [3H]-TdR uptake of BCWM.1 cells adherent to BMSCs; type: cell-based, human; details: 0.1-10 nM, 48 hours
Description: as §1

BCWM.1 cells [13] = test: Transwell migration assay towards SDF-1; type: cell-based, human; details: 0.01-1 nM, 4 hours, 30 nM SDF-1
Description: Transwell migration assay (Costar; Corning, Acton, Mass.) was performed using BCWM.1 cells in the presence or absence of 30 nM SDF-1, as described (Azab A. K., et al., Blood, 114(3):619-29 (2009)).
as §1

[14] = test system: WM and IgM low grade lymphoma cell lines (BCWM.1, MWCL.1 and RL); test: Adhesion to primary WM bone marrow stromal cells; type: cell-based, human; details: 0.01-1 nM
Description: as §1

BCWM.1 cells [15] = test: [3H]-thymidine uptake of BCWM.1 cells in presence of endothelial cells (HUVECs); type: cell-based, human; details: 0.01-10 nM, 48 hours
HUVECs = test: Morphogenesis assay on Matrigel (capillary tubule formation); type: cell-based, human
Description: Unpolymerized Matrigel (17 mg/mL; Becton Dickinson, Mountain View, Calif.) was placed (50 μL/well) in a 96-well microtiter plate (0.32 cm2/well) and polymerized for 1 hour at 37° C. HUVECs and MMECs (5×10^3 per well) in 200 μL of DMEM/10% FCS (positive control), serum-free medium (negative control), as well as in the presence or absence of everolimus (0-0.01-0.1-1-10 nM) were layered onto the Matrigel surface. After 6 hours of incubation in a 5% CO2 humidified atmosphere at 37° C., cell growth and tridimensional organization were observed using a reverted phase-contrast light microscope, as described (Roccaro A. M. et al., Cancer Res., 66(1):184-91 (2006)).

NF-κB p65 = NF-κB p65 DNA-binding activity (Active Motif TransAM) in nuclear extracts; type: cell-based, human; details: BCWM.1 and MWCL.1; everolimus 1 nM or bortezomib 5 nM, 4 hours; TNF-α 10 ng/mL
Description: NF-κB activity was investigated using the Active Motif TransAM kits, a DNA-binding enzyme-linked immunosorbent assay (ELISA)-based assay (Active Motif North America, Carlsbad, Calif.).

BCWM.1 cells [16] = details: everolimus 0.5 nM alone, 48 hours
[17] = patients with relapsed or refractory WM, oral; cited from earlier work
BCWM.1 cells [18] = test: Western blot of p-4EBP1 and p-70S6K in BCWM.1 cells cultured with HUVECs; details: 0.01-10 nM, 6 hours
Description: as §2
It was next sought to determine the effect of everolimus on modulating vessel formation. […] The impact of everolimus to target WM cells in presence of endothelial cells was next evaluated at signaling level.

Compound: rituximab: the anti-CD20 antibody, rituximab
- specific lysis (BCWM.1 cells [1]): 37.7%

Compound: CO[C@H]1C[C@@H]2CC[C@@H](C)[C@@](O)(O2)C(=O)C(=O)N2CCCC[C@H]2C(=O)O[C@H]([C@H](C)C[C@@H]2CC[C@@H](OCCO)[C@H](OC)C2)CC(=O)[C@H](C)/C=C(\C)[C@@H](O)[C@@H](OC)C(=O)[C@H](C)C[C@H](C)/C=C/C=C/C=C/1C [everolimus, 40-O-(2-hydroxyethyl) derivative of sirolimus (rapamycin)]
- phosphorylation of S6R and 4EBP1 in bone marrow biopsies ([2]; patients with partial response, pre- vs post-everolimus): inhibition of phosphorylation
- modulation of p-S6R and p-4EBP1 in bone marrow biopsies ([2]; patients with stable disease): not observed
- cytotoxic effect [3]: significantly induced toxicity in all the 4 samples
- cytotoxicity at doses used for migration (BCWM.1 cells [4]; 0.01-1 nM, 4 hours): did not induce cytotoxicity
- cytotoxicity (BCWM.1 cells [4]; 0.01-40 nM, 48 hours): inducing cytotoxicity in a dose-dependent manner
- cell proliferation (BCWM.1 cells [5]): inhibiting cell proliferation
- p-mTOR, p-p70S6K and p-4EBP1 (mTOR): inhibition
- cytotoxicity (WM-WSU, RL, MWCL.1 cells): induction of cytotoxicity was validated
- cytotoxicity [6]: did not show cytotoxicity
- cells in S phase (BCWM.1 cells [7]; 0.1 nM everolimus): 29.14%
- G1 phase BCWM.1 cells (BCWM.1 cells [7]; 0.1 nM everolimus): 61.25%
- cells in S phase (BCWM.1 cells [7]; 1 nM everolimus): 21.71%
- G1 phase BCWM.1 cells (BCWM.1 cells [7]; 1 nM everolimus): 70.98%
- cell cycle progression (BCWM.1 cells [7]; 0.1-10 nM, 12 hours): cell cycle arrest
- cyclin D1 and cyclin D2 (BCWM.1 cells [8]): down-regulation
- cyclin kinase inhibitor proteins p27Kip1, p21Cip1 (BCWM.1 cells [8]): up-regulation
- apoptosis (DNA fragmentation) [9]: induced apoptosis in a dose-dependent manner
- caspase-9, -3 and PARP cleavage (BCWM.1 and MWCL.1 cells [10]): induced caspase-9, -3 and PARP cleavage in a dose dependent manner
- miRNA155 level (miRNA-155): inhibited miRNA155 level in a dose-dependent manner
- everolimus-dependent induction of toxicity after miRNA155 knock down (BCWM.1 and MWCL.1 cells [11]): partially inhibited by knocking down miRNA155
- viability of BMSCs (BMSCs): not affected
- BMSC-triggered proliferation of BCWM.1 cells (BCWM.1 cells [12]): inhibited by everolimus in a dose-dependent manner
- migration towards SDF-1 (BCWM.1 cells [13]): inhibited WM cell migration towards SDF-1, in a dose-dependent manner
- migration towards SDF-1 (BCWM.1 cells [13]; listed as Everolimus): inhibited SDF-1-induced migration
- cell adhesion to primary WM bone marrow stromal cells [14]: inhibited WM cell adhesion in a dose-dependent manner
- WM cell proliferation in presence of endothelial cells (BCWM.1 cells [15]): reduced WM cell proliferation, despite the presence of endothelial cells
- capillary formation (HUVECs; 1 nM everolimus): almost complete inhibition of capillary formation
- endothelial cell morphogenesis on Matrigel (HUVECs; 0.01-10 nM): inhibited endothelial cell morphogenesis on Matrigel in a dose-dependent manner
- TNF-α-induced NF-κB recruitment to the nucleus, single agents (NF-κB p65): similarly inhibited
- cytotoxicity, % of BCWM.1 cells (BCWM.1 cells [16]): 24%
- minor response [17]: 28%
- overall response rate [17]: 70%
- partial response (PR) [17]: 42%
- endothelial cell-dependent phosphorylation of 4EBP1 and 70SK in WM cells (BCWM.1 cells [18]): inhibited endothelial cell-dependent phosphorylation of 4EBP1 and 70SK
